US20020132800A1, “Dietary supplement composition and method for improving and maintaining healthy skin” (priority 2000, published 2002)

Assays:
[1] = Stability testing of the preferred embodiment tablet under accelerated storage conditions (ingredient content as % of claim); assay type: physicochemical; conditions: 40 +/- 2 deg C and 75 +/- 5% RH, 150 cc white HDPE bottle
[2] = Dissolution of ingredients from the tablet during accelerated stability testing; assay type: physicochemical; conditions: 40 +/- 2 deg C and 75 +/- 5% RH, 150 cc white HDPE bottle

Question: For Vitamin A, which “Result as % of claim at indicated weeks” value ([1]; 0 wk) is on record?
Answer: 136 % of claim

Question: What about the “Result as % of claim at indicated weeks” value ([1]; 4 wk) of the same molecule?
Answer: 134 % of claim

Question: What about the “Result as % of claim at indicated weeks” value ([1]; 8 wk) of the same molecule?
Answer: 113 % of claim

Question: And the “Result as % of claim at indicated weeks” value ([1]; 13 wk)?
Answer: 106 % of claim

Question: What about the “Result as % of claim at indicated weeks” value ([1]; 26 wk) of the same molecule?
Answer: 110 % of claim

Question: Which results are given for `[Mn+2]` [Manganese]?
Answer: Result as % of claim at indicated weeks ([1]; 0 wk): 119 % of claim; Result as % of claim at indicated weeks ([1]; 4 wk): 114 % of claim; Result as % of claim at indicated weeks ([1]; 8 wk): 115 % of claim; Result as % of claim at indicated weeks ([1]; 13 wk): 115 % of claim; Result as % of claim at indicated weeks ([1]; 26 wk): 113 % of claim

Question: Which “Dissolution, result as % of claim at indicated weeks” value (“Dissolution, result as % of claim” for short) ([2]; 13 wk) does the source give for `[Ca+2]` [Calcium] here?
Answer: 119 % of claim

Question: And the “Dissolution, result as % of claim” value ([2]; 26 wk)?
Answer: 115 % of claim

Question: And the “Result as % of claim at indicated weeks” value ([1]; 13 wk)?
Answer: 120 % of claim

Question: And the “Result as % of claim at indicated weeks” value ([1]; 26 wk)?
Answer: 118 % of claim

Question: For `Nc1nc2ncc(CNc3ccc(C(=O)N[C@@H](CCC(=O)O)C(=O)O)cc3)nc2c(=O)[nH]1` [Folic Acid], which “Result as % of claim at indicated weeks” value ([1]; 0 wk) is on record?
Answer: 169 % of claim

Question: What about the “Result as % of claim at indicated weeks” value ([1]; 4 wk) of the same molecule?
Answer: 132 % of claim

Question: And the “Result as % of claim at indicated weeks” value ([1]; 8 wk)?
Answer: 125 % of claim

Question: And the “Result as % of claim at indicated weeks” value ([1]; 13 wk)?
Answer: 120 % of claim

Question: And the “Result as % of claim at indicated weeks” value ([1]; 26 wk)?
Answer: 117 % of claim

Question: Which results are given for `Cc1cc2nc3c(=O)[nH]c(=O)nc-3n(C[C@H](O)[C@H](O)[C@H](O)CO)c2cc1C` [Vitamin B2, Riboflavin]?
Answer: Dissolution, result as % of claim at indicated weeks ([2]; 0 wk): 133 % of claim; Dissolution, result as % of claim at indicated weeks ([2]; 4 wk): 120 % of claim; Dissolution, result as % of claim at indicated weeks ([2]; 8 wk): 109 % of claim; Dissolution, result as % of claim at indicated weeks ([2]; 13 wk): 119 % of claim; Dissolution, result as % of claim at indicated weeks ([2]; 26 wk): 125 % of claim; Result as % of claim at indicated weeks ([1]; 0 wk): 132 % of claim; Result as % of claim at indicated weeks ([1]; 4 wk): 123 % of claim; Result as % of claim at indicated weeks ([1]; 8 wk): 125 % of claim; Result as % of claim at indicated weeks ([1]; 13 wk): 123 % of claim; Result as % of claim at indicated weeks ([1]; 26 wk): 123 % of claim

Question: Which “Result as % of claim at indicated weeks” value ([1]; 0 wk) does the source give for Vitamin E here?
Answer: 126 % of claim

Question: And the “Result as % of claim at indicated weeks” value ([1]; 4 wk)?
Answer: 115 % of claim

Question: And the “Result as % of claim at indicated weeks” value ([1]; 8 wk)?
Answer: 110 % of claim

Question: And the “Result as % of claim at indicated weeks” value ([1]; 13 wk)?
Answer: 125 % of claim

Question: And the “Result as % of claim at indicated weeks” value ([1]; 26 wk)?
Answer: 121 % of claim

Question: For `[Cr]` [Chromium], which “Result as % of claim at indicated weeks” value ([1]; 0 wk) is on record?
Answer: 139 % of claim

Question: What about the “Result as % of claim at indicated weeks” value ([1]; 4 wk) of the same molecule?
Answer: 128 % of claim

Question: And the “Result as % of claim at indicated weeks” value ([1]; 8 wk)?
Answer: 120 % of claim

Question: And the “Result as % of claim at indicated weeks” value ([1]; 13 wk)?
Answer: 133 % of claim

Question: What about the “Result as % of claim at indicated weeks” value ([1]; 26 wk) of the same molecule?
Answer: 121 % of claim

Question: Which “Result as % of claim at indicated weeks” value ([1]; 0 wk) does the source give for `CC(C)=CCC/C(C)=C/C=C/C(C)=C/C=C/C(C)=C/C=C/C=C(C)/C=C/C=C(C)/C=C/C=C(\C)CCC=C(C)C` [Lycopene] here?
Answer: 131 % of claim

Question: What about the “Result as % of claim at indicated weeks” value ([1]; 4 wk) of the same molecule?
Answer: 144 % of claim

Question: And the “Result as % of claim at indicated weeks” value ([1]; 8 wk)?
Answer: 170 % of claim

Question: What about the “Result as % of claim at indicated weeks” value ([1]; 13 wk) of the same molecule?
Answer: 156 % of claim

Question: What about the “Result as % of claim at indicated weeks” value ([1]; 26 wk) of the same molecule?
Answer: 150 % of claim

Question: With `Cc1ncc(CO)c(CO)c1O.Cl` [Vitamin B6] as the molecule, how does the “Result as % of claim at indicated weeks” value ([1]; 0 wk) read?
Answer: 116 % of claim

Question: And the “Result as % of claim at indicated weeks” value ([1]; 4 wk)?
Answer: 109 % of claim

Question: What about the “Result as % of claim at indicated weeks” value ([1]; 8 wk) of the same molecule?
Answer: 110 % of claim

Question: What about the “Result as % of claim at indicated weeks” value ([1]; 13 wk) of the same molecule?
Answer: 137 % of claim

Question: What about the “Result as % of claim at indicated weeks” value ([1]; 26 wk) of the same molecule?
Answer: 114 % of claim

Question: Which results are given for `O=C(O)CCCC[C@@H]1SC[C@@H]2NC(=O)N[C@@H]21` [Biotin]?
Answer: Result as % of claim at indicated weeks ([1]; 0 wk): 105 % of claim; Result as % of claim at indicated weeks ([1]; 4 wk): 101 % of claim; Result as % of claim at indicated weeks ([1]; 8 wk): 100 % of claim; Result as % of claim at indicated weeks ([1]; 13 wk): 114 % of claim; Result as % of claim at indicated weeks ([1]; 26 wk): 93.0 % of claim

Question: With `[Cu]` [Copper] as the molecule, how does the “Result as % of claim at indicated weeks” value ([1]; 0 wk) read?
Answer: 115 % of claim

Question: And the “Result as % of claim at indicated weeks” value ([1]; 4 wk)?
Answer: 111 % of claim

Question: What about the “Result as % of claim at indicated weeks” value ([1]; 8 wk) of the same molecule?
Answer: 111 % of claim

Question: And the “Result as % of claim at indicated weeks” value ([1]; 13 wk)?
Answer: 114 % of claim

Question: What about the “Result as % of claim at indicated weeks” value ([1]; 26 wk) of the same molecule?
Answer: 109 % of claim

Question: Which results are given for `O=C1O[C@H]([C@@H](O)CO)C(O)=C1O` [Vitamin C]?
Answer: Result as % of claim at indicated weeks ([1]; 0 wk): 108 % of claim; Result as % of claim at indicated weeks ([1]; 4 wk): 106 % of claim; Result as % of claim at indicated weeks ([1]; 8 wk): 103 % of claim; Result as % of claim at indicated weeks ([1]; 13 wk): 114 % of claim; Result as % of claim at indicated weeks ([1]; 26 wk): 104 % of claim

Question: For `[Zn]` [Zinc], which “Dissolution, result as % of claim” value ([2]; 0 wk) is on record?
Answer: 117 % of claim

Question: What about the “Dissolution, result as % of claim” value ([2]; 4 wk) of the same molecule?
Answer: 102 % of claim

Question: What about the “Dissolution, result as % of claim” value ([2]; 8 wk) of the same molecule?
Answer: 104 % of claim

Question: And the “Dissolution, result as % of claim” value ([2]; 13 wk)?
Answer: 107 % of claim

Question: What about the “Result as % of claim at indicated weeks” value ([1]; 0 wk) of the same molecule?
Answer: 121 % of claim

Question: What about the “Result as % of claim at indicated weeks” value ([1]; 4 wk) of the same molecule?
Answer: 109 % of claim

Question: And the “Result as % of claim at indicated weeks” value ([1]; 8 wk)?
Answer: 117 % of claim

Question: And the “Result as % of claim at indicated weeks” value ([1]; 13 wk)?
Answer: 108 % of claim

Question: And the “Result as % of claim at indicated weeks” value ([1]; 26 wk)?
Answer: 112 % of claim

Question: Which results are given for `[Se]` [Selenium]?
Answer: Result as % of claim at indicated weeks ([1]; 0 wk): 103 % of claim; Result as % of claim at indicated weeks ([1]; 4 wk): 136 % of claim; Result as % of claim at indicated weeks ([1]; 8 wk): 123 % of claim; Result as % of claim at indicated weeks ([1]; 13 wk): 129 % of claim; Result as % of claim at indicated weeks ([1]; 26 wk): 126 % of claim

Question: Which “Result as % of claim at indicated weeks” value ([1]; 0 wk) does the source give for Silicon here?
Answer: 108 % of claim

Question: And the “Result as % of claim at indicated weeks” value ([1]; 8 wk)?
Answer: 109 % of claim

Question: What about the “Result as % of claim at indicated weeks” value ([1]; 13 wk) of the same molecule?
Answer: 122 % of claim

Question: And the “Result as % of claim at indicated weeks” value ([1]; 26 wk)?
Answer: 107 % of claim

Question: With `CC1=C(/C=C/C(C)=C/C=C/C(C)=C/C=C/C=C(C)/C=C/C=C(C)/C=C/C2=C(C)CCCC2(C)C)C(C)(C)CCC1` [Beta Carotene] as the molecule, how does the “Result as % of claim at indicated weeks” value ([1]; 0 wk) read?
Answer: 123 % of claim

Question: What about the “Result as % of claim at indicated weeks” value ([1]; 4 wk) of the same molecule?
Answer: 139 % of claim

Question: What about the “Result as % of claim at indicated weeks” value ([1]; 8 wk) of the same molecule?
Answer: 130 % of claim

Question: And the “Result as % of claim at indicated weeks” value ([1]; 13 wk)?
Answer: 144 % of claim

Question: What about the “Result as % of claim at indicated weeks” value ([1]; 26 wk) of the same molecule?
Answer: 124 % of claim
